Data on 1 compound can be found in article PMC7366380, “Discovery of a Potent and Selective Covalent Inhibitor and Activity-Based Probe for the Deubiquitylating Enzyme UCHL1, with Antifibrotic Activity” (Journal of the American Chemical Society, 2020).

As a reminder, the EC50 is the concentration that produces a half-maximal response. For orientation: IC50 means the concentration needed to halve the response being measured.

Data set [1] can be described thus: FMT assay, cell number (DAPI nuclei count). The settings on record: human.
For data set [2], the system named is primary human bronchial fibroblasts from IPF patients (TGF-β1-triggered αSMA). The experiment in a line: Fibroblast-to-myofibroblast transition (FMT) assay, αSMA by high content analysis.

Regarding `COC(=O)c1ccc2c(c1)NC(=O)/C2=C(\Nc1ccc(N(C)C(=O)CN2CCN(C)CC2)cc1)c1ccccc1` [nintedanib, reference compound], in data set [1], the EC50 at 3 days was ~18 µM. For the same compound, the IC50 in data set [2] (Homo sapiens, Fibroblast, 72 h, read-out: αSMA inhibition IC50 (95% CI)) came to 0.28 µM. Further, the “αSMA inhibition / transdifferentiation (in words)” value in data set [2] (IPF donor fibroblasts, TGF-β1, 3 days, high content imaging) is “inhibit transdifferentiation”.
